The source of these data is PubChem BioAssay (NCI).

Experiment in all cases: inhibition of tumour cell growth, NCI panel, 48 h
The subject of assay [1] is HCC-2998 colon.
Assay [2] relates to SNB-75 CNS.
The test system of assay [3] is LOX IMVI melanoma.
The subject of assay [4] is COLO 205 colon.
In assay [5] the test system is SR leukemia.
Assay [6] concerns RXF 393 renal.
Assay [7] concerns 786-0 renal.
Assay [8] deals with KM12 colon.
Assay [9] concerns K-562 leukemia.

Values joined by “and” are separate entries in the source; they are usually repeats but may differ in a detail not shown here. Identical values can stand only once.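 48-hour exposure; five concentrations; linearly interpolated endpoints. Here, GI50 denotes the concentration required for 50% inhibition of growth. TGI marks complete inhibition of growth.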

As for `Nc1ccn(CC(CO)CC(c2ccccc2)P(=O)(O)O)c(=O)n1` (stereo not drawn), the TGI was above 100 µM in assay [1]; 28.4 µM and > 100 µM in [2]; above 100 µM in assay [3]; above 100 µM in assay [4]; above 100 µM in assay [5]; above 100 µM in assay [6]. The TGI in assay [7], in assay [8] and in assay [9] was above 100 µM in each case.
`CCN1C(=O)C(N=[N+]=[N-])(c2ccccc2)C(=O)c2ccccc21` (stereo not drawn): the TGI in assay [1], in assay [2], in assay [3], in assay [4], in assay [5] and in [6] was above 100 µM in each case. Further, the TGI in assay [7], in assay [8] and in assay [9] was above 100 µM in each case.
For `COc1cc(C2C(C(=O)OCc3ccccc3)=C(C)NC(C)=C2C(=O)OCc2ccccc2)cc(OC)c1OC`, the GI50 in assay [2] was 4.69 µM; in [5], 2.22 µM; in assay [7], 1.46 µM. For the same compound, the TGI in [2], in assay [5] and in assay [7] was above 100 µM throughout.
Regarding `COC(=O)C(C(=O)C(=O)Nc1ccc([N+](=O)[O-])cc1)c1nc2cc(C)c(C)cc2[nH]c1=O` (stereo not drawn), the TGI in assay [1], in [2], in [3], in assay [4], in assay [5] and in assay [6] was above 100 µM each time. Besides, the TGI in [7], in assay [8] and in assay [9] was above 100 µM throughout.
Take `CCOC(=O)/C(=C/c1ccc(Cl)cc1)N(CC)CC`: the TGI in assay [1], in assay [2], in [3], in assay [4], in [5] and in assay [7] was above 100 µM each time. Moreover, the TGI in [8] and in [9] was above 100 µM throughout.
For `CCOC(=O)NN(C(=O)OCC)C(C(=O)c1ccc(Cl)cc1)=C1NCCN1`, the TGI in [1], in assay [2], in [3], in assay [4], in assay [5] and in assay [6] was above 100 µM throughout. Besides, the TGI in [7], in assay [8] and in assay [9] was above 100 µM throughout.
For `CC1=C2[C@@H](c3ccccc3)C3C=CC2(c2ccccc23)N(C(=O)Nc2cccc3ccccc23)C1=O` (stereo partly drawn), the TGI in assay [1], in assay [3], in [4], in assay [5], in assay [7] and in assay [8] was above 100 µM throughout. In assay [9], this compound came in with a TGI above 100 µM.
As to `CCOC1=C2C(C)(CCC3[C@@]4(C)C=CC(=O)C(C)(C)C4CC(O)[C@@]23C)C(c2ccoc2)C1=O` (stereo partly drawn), the TGI in [1] is 31.1 µM; in assay [2], above 100 µM; in assay [3], 29.1 µM; in assay [4], 29.3 µM; in assay [6], 34 µM; in [7], 39.8 µM. The TGI amounted to 46.6 µM in [8] and 50.2 µM in assay [9].
As to `NC(=O)OCC(COc1ccc(Cl)cc1)OC(=O)c1cc([N+](=O)[O-])cc([N+](=O)[O-])c1` (stereo not drawn), the TGI in [1] is above 100 µM; in assay [2], above 100 µM; in assay [3] it was 34.4 µM; in [4], above 100 µM; in [5], above 100 µM; in assay [6], above 100 µM. Besides, the TGI in assay [7], in assay [8] and in assay [9] was above 100 µM throughout.
As for `Cc1cc2c(=O)c3ccccc3oc2c(C#N)c1C`, the TGI in [1], in [2], in [4], in assay [5], in assay [6] and in [7] was above 100 µM in each case. The TGI in assay [8] and in [9] was above 100 µM in each case.
Consider `CS(=O)(=O)c1ccc(-c2[nH]c3ccc(F)cc3c2/C=N/NC(N)=S)cc1`, for which the GI50 in assay [1] is 2.95 µM; in [2] it was 1.85 µM; in assay [3] it was 0.84 µM; in assay [4], 1.47 µM; in [5], 0.329 µM; in assay [6], 1.21 µM. For the same compound, the GI50 in assay [7] was 0.605 µM; in assay [8], 0.73 µM; in [9] it was 0.532 µM. The TGI was 14.7 µM in assay [1]; above 100 µM in assay [2]; above 100 µM in assay [3]; 5.14 µM in assay [4]; 32.8 µM in [5]; 63.1 µM in [6]. Besides, the TGI was above 100 µM in assay [7], 28.8 µM in [8] and 41.2 µM in assay [9].
Regarding `COC(=O)C1CCC[C@H]2C(CO)=C(C)C(=O)[C@@H]12` (stereo partly drawn), the TGI in assay [1], in [2], in assay [4], in [5], in assay [6] and in assay [7] was above 100 µM in each case. The TGI in [8] and in [9] was above 100 µM each time.
In the case of `N#Cc1nc(Nc2ccc(Cl)cc2)sc1N`, the TGI in assay [1] is 14.8 µM; in assay [2], above 71.1 µM; in assay [3] it was 13.7 µM; in [4], 47.7 µM; in assay [5], 11.6 µM; in assay [7], 33.7 µM. Also, the figures for the TGI in assay [8] and in assay [9] were above 86.5 µM and 48.6 µM, respectively.
Turning to `N#CC(C#N)=Cc1ccc(Oc2ccccc2)cc1`, the TGI in [1] is above 100 µM; in [2], above 91.7 µM; in assay [3], 30.8 µM; in assay [4] it was above 100 µM; in assay [5], above 100 µM; in [6], above 100 µM. The TGI is 33 µM in [7], above 100 µM in assay [8] and above 80.4 µM in [9].
With `Cc1ccc(S(=O)(=O)NC(=O)C#CCOC2CCCCO2)cc1` (stereo not drawn), the TGI in assay [1], in assay [2], in [3], in [5], in [6] and in [7] was above 100 µM in each case. In assay [9], this compound showed a TGI above 100 µM.
For the compound `O=C(NCCCCCCNC(=O)NC1OCC(O)C(O)C1O)NC1OCC(O)C(O)C1O` (stereo not drawn), the TGI in assay [2], in assay [3], in assay [4], in assay [5], in assay [6] and in [7] was above 100 µM throughout. The TGI in assay [8] and in [9] was above 100 µM each time.
With `COc1cc2c3c(c1OCc1ccccc1)NCCC3NCC2` (stereo not drawn), the TGI in [1], in assay [2], in assay [3], in [4], in [5] and in [6] was above 100 µM each time. The TGI in assay [7], in [8] and in assay [9] was above 100 µM each time.
On to `CC1OC(n2cc(I)c(=O)[nH]c2=O)C=CC1=O` (stereo not drawn), for which the TGI in assay [1] was 31.5 µM; in assay [2] it was 31.1 µM; in [3], 19.6 µM; in assay [4], 30.7 µM; in [5], 32.2 µM; in assay [7], 26.9 µM. For the same compound, the results for the TGI in assay [8] and in [9] were 25.8 µM and 18 µM, respectively.
`C[C@]12CC/C(=N\OC(=O)Nc3ccccc3)C=C1CC[C@@H]1C2CC[C@@]2(C)C1CC[C@@H]2OC(=O)Nc1ccccc1` (stereo partly drawn): the TGI in [1], in assay [2], in [3], in [4], in [7] and in assay [8] was above 100 µM throughout. Moreover, in assay [9], the TGI is above 100 µM.
`N#CC(C(=O)C(=O)Nc1ccc(Cl)c(Cl)c1)c1ccc(Cl)cc1` (stereo not drawn): the TGI in assay [1] is above 100 µM; in assay [2], above 100 µM; in [3], 31.1 µM; in [4], above 100 µM; in [5], above 100 µM; in assay [6], above 100 µM. The TGI in assay [7] was above 100 µM; in assay [8], above 100 µM; in assay [9] it was 60.1 µM.
Turning to `CCCCCCCCCCCCCC(=O)OC1C(CO)OC(=O)C1O` (stereo not drawn), the TGI in assay [1], in assay [2], in [3], in [4], in [6] and in [7] was above 100 µM throughout. Also, the TGI in assay [8] and in assay [9] was above 100 µM each time.
For `COc1cccc(N2C(=O)[C@H]3[C@H]4CC(C(C)(C)C)CC[C@H]4c4c([nH]c5ccccc45)[C@H]3C2=O)c1` (stereo partly drawn), the TGI is above 100 µM in assay [1]; 30.1 µM in [2]; 32.7 µM in assay [3]; 32.2 µM in assay [4]; 42 µM in assay [6]; 30.1 µM in assay [7]. Besides, the TGI in assay [8] was above 100 µM; in [9] it was 29 µM.
As for `CSC1CC2C(CC1(C)SC)C2(C)C` (stereo not drawn), the TGI is above 100 µM in assay [1]; 83.9 µM in assay [2]; above 100 µM in assay [3]; above 100 µM in assay [4]; above 100 µM in assay [5]; above 100 µM in assay [6]. The TGI in assay [7] is above 100 µM; in assay [8], above 100 µM; in [9], 81.8 µM.
With `O=C(CC(=O)c1cccc([N+](=O)[O-])c1)C(=O)Nc1nc([N+](=O)[O-])cs1`, the TGI in assay [1], in [3], in assay [4], in assay [5], in assay [6] and in [7] was above 100 µM in each case. The TGI in assay [8] and in assay [9] was above 100 µM throughout.
Take `COc1ccc2c([nH]c3cc(O)c(C)cc32)c1CC=C(C)C`: the GI50 was 5.49 µM in [1]; 4.36 µM in [3]; 7.19 µM in assay [5]; 4.4 µM in assay [7]; 5.78 µM in [9]. For the same compound, the TGI was 14.5 µM in assay [1]; 7.8 µM in assay [3]; above 25 µM in assay [4]; above 25 µM in assay [5]; 8.61 µM in assay [7]; 24 µM in [9].
Regarding `COc1cc2c(cc1OC)C1(c3ccccc3)ON=C(c3ccccc3)N1CS2` (stereo not drawn), the TGI in [1], in [2], in assay [3], in assay [4], in [5] and in assay [6] was above 100 µM each time. For the same compound, the TGI in assay [7], in assay [8] and in assay [9] was above 100 µM in each case.
Take `CC(=O)O[C@]12CCCCC1C1(O)C(O)CCCC[C@H]12` (stereo partly drawn): the TGI in assay [2], in [3], in assay [4], in assay [5], in assay [6] and in assay [7] was above 100 µM in each case. Besides, the TGI in assay [8] and in [9] was above 100 µM in each case.
Consider `CO[C@]12CCC(=O)N1C=Cc1c2[nH]c2ccccc12`, for which the TGI in [1], in assay [2], in [3], in [4], in assay [5] and in assay [6] was above 100 µM in each case. Besides, the TGI in [7] and in assay [9] was above 100 µM throughout.
As to `C/C=C/C=C\C(=O)C1c2cccc(O)c2C(=O)c2c(O)cc(C)cc21` (stereo not drawn), the TGI in [1] amounted to 1.6 µM; in assay [2], 2.74 µM; in [3] it was 3.38 µM; in assay [4], 2.99 µM; in assay [6], 2.81 µM; in [7], 3.93 µM. Further, the results for the TGI in [8] and in assay [9] were 1.51 µM and above 100 µM, respectively.
With `CC(C)N(C(=O)C12C3C4C5C3C1(C#N)C5C42)C(C)C` (stereo not drawn), the TGI in assay [1], in [2], in assay [3], in [4], in assay [5] and in [7] was above 100 µM in each case. Besides, the TGI in assay [8] and in [9] was above 100 µM each time.
